The record followed here is PubChem BioAssay AID792 (PCMD, 2007).

For this assay, the target named is S. cerevisiae eIF2B mutant, luciferase reporter luminescence. In words: eIF2B reporter inhibitors in yeast strains, dose response, S. cerevisiae, mutant, wild-type, luminescence, growth (AID 792).
Setting [1] is: S. cerevisiae wild-type, luminescence.
Where [2] appears, read: measured here: mutant yeast growth.

Results filed as inconclusive are left out. The source made the active and inactive calls. No rule for the calls is given here.

One may read the IC50 as the point on the concentration scale where inhibition reaches its midpoint. For `O=c1c(Cl)c(N2CCCCC2)cnn1-c1nc2ccccc2[nH]1`, the IC50 result was “inactive”. Further, the IC50 under setting [1] was determined as 3.69 µM. For the same molecule, the IC50 under setting [2] was above 100 µM.
For `Cc1ccc(-c2nnc(COc3cccc(-n4cnnn4)c3)o2)cc1`, the IC50 is > 100 µM (inactive). Further, the IC50 under setting [2] is above 100 µM.
For `COc1ccccc1-n1cnnc1SCC(=O)c1cc(C)n(Cc2cccs2)c1C`, the IC50 was > 100 µM (inactive). Also, the IC50 under setting [2] was above 100 µM.
As to `CCOC(=O)N1CCN(C(=O)c2ccc(N3CCCC3=O)cc2)CC1`, the IC50 was > 100 µM (inactive). Further, the IC50 under setting [2] was above 100 µM.
Taken in the same sequence, the figures for `CCn1c(SCC(=O)Nc2oc(-c3ccccc3)c(-c3ccccc3)c2C#N)nnc1-c1ccco1` were > 100 µM (inactive) and above 100 µM.
With `CCOc1ccc(C2NC(=O)NC(C)=C2C(=O)OC)cc1C` (configuration not stated), the IC50 entry is “inactive”. Besides, the IC50 under setting [2] stood at 33.3 µM.
In the case of `Cc1nnc(NC(=O)C2(c3ccccc3)CCOCC2)s1`, the IC50 was > 100 µM (inactive). Further, the IC50 under setting [2] is above 100 µM.
Taken in the same sequence, the figures for `C=CCSc1nnc2c(n1)OC(c1cccnc1)N(C(C)=O)c1ccccc1-2` (configuration not stated) were > 100 µM (inactive) and above 100 µM.
Consider `c1ccc(SCc2nc(-c3ccccn3)no2)cc1`, for which the IC50 was > 100 µM (inactive). This molecule came in with an IC50 under setting [2] above 100 µM.
In the case of `Cc1nc2ccc(NC(=O)Cc3ccsc3)cc2s1`, the IC50 is > 100 µM (inactive). Further, under setting [2], the half-inhibitory concentration (IC50) was above 100 µM.
For `CCOP(=O)(C#CC(C)(C)C)C1(O)CCCCC1` (configuration not stated), in that order: > 100 µM (inactive) and above 100 µM.
Taken in the same sequence, the figures for `CN(C)P(=O)(C(Cl)=C(N1CCCCC1)N1CCCCC1)N(C)C` were > 100 µM (inactive) and above 100 µM.
Taken in the same sequence, the figures for `COc1ccc(S(=O)(=O)CCC(=O)N2c3ccccc3CC2C)cc1` (configuration not stated) were > 100 µM (inactive) and above 100 µM.
`CCOc1ccc(-n2cc(C(=O)N3CCC(C)CC3)c3cc(OC)c(OC)cc3c2=O)cc1`: the IC50 is > 100 µM (inactive). Under setting [2], this molecule displayed an IC50 above 100 µM.
Turning to `O=c1/c(=C/c2ccc(O)cc2)sc2n1CCCN=2`, the IC50 result was “inactive”. This molecule registered an IC50 under setting [1] of 2.11 µM. Further, the IC50 under setting [2] is above 100 µM.
On to `COC(=O)[C@H](Cc1ccccc1)NC(=O)NCc1ccccc1OC`, for which the IC50 was > 100 µM (inactive). The molecule also yielded an IC50 under setting [2] above 100 µM.
For `CCOC(=O)c1c(-c2ccco2)csc1NC(=O)CSc1nnc(N)s1`, the IC50 was > 100 µM (inactive). Further, the IC50 under setting [2] was above 100 µM.
Taken in the same sequence, the figures for `CCCCCn1c(NC(=O)c2ccco2)c(S(=O)(=O)c2ccc(C)cc2)c2nc3ccccc3nc21` were > 100 µM (inactive) and above 100 µM.
For `CCOC(=O)C1CCCN(C(=O)C(C)Oc2ccc(Cl)cc2Cl)C1` (configuration not stated), in that order: > 100 µM (inactive) and above 100 µM.
For `COc1ccc(C(=O)COC(=O)CN2C(=O)NC(C)(C)C2=O)cc1OC`, in that order: > 100 µM (inactive) and above 100 µM.
Consider `COc1ccc2c(c1)CCc1c(C(=O)NCc3cccnc3)noc1-2`, for which the IC50 is > 100 µM (inactive). The molecule also returned an IC50 under setting [2] above 100 µM.
On to `CCC(C(=O)NC1CCCC1)N(C(=O)c1snc(C(N)=O)c1N)c1ccc2c(c1)OCCO2` (configuration not stated), for which the IC50 was > 100 µM (inactive). In addition, the IC50 under setting [2] was above 100 µM.
Taken in the same sequence, the figures for `CCS(=O)(=O)N1CCCC(C(=O)NCCN(C)Cc2ccccc2)C1` (configuration not stated) were > 100 µM (inactive) and above 100 µM.
Taken in the same sequence, the figures for `CCC(Sc1nc2sc(C(=O)OC)c(C)c2c(=O)n1N)C(=O)NCC1CCCO1` (configuration not stated) were > 100 µM (inactive) and above 100 µM.
Taken in the same sequence, the figures for `Cc1cc(C(=O)Nc2ccccc2C(F)(F)F)no1` were > 100 µM (inactive) and above 100 µM.
With `CCOC(=O)COc1ccc(S(=O)(=O)NCc2ccco2)cc1`, the IC50 is > 100 µM (inactive). Under setting [2], this molecule had an IC50 above 100 µM.
Taken in the same sequence, the figures for `CCn1cc(C(=O)NCC2CCCO2)c(=O)c2cc(S(=O)(=O)N3CCCCC3)ccc21` (configuration not stated) were > 100 µM (inactive) and above 100 µM.
For `O=C(Cc1ccccc1)N(c1ccc(F)cc1)C1C=CS(=O)(=O)C1` (configuration not stated), in that order: > 100 µM (inactive) and above 100 µM.
For `NC(=O)CSC1=Nc2ccccc2C2=NC(CC(=O)NCc3cccs3)C(=O)N12` (configuration not stated), in that order: > 100 µM (inactive) and above 100 µM.
For `O=c1c(Cl)c(NCCCO)cnn1-c1nc2ccccc2[nH]1`, the IC50 result was “inactive”. In addition, the IC50 under setting [1] stood at 15.9 µM. Also, the IC50 under setting [2] stood at 29.2 µM.
Take `O=c1/c(=C/c2ccc(CNS(=O)(=O)c3ccccc3)o2)sc2n1CCN=2`: the IC50 was > 100 µM (inactive). In addition, the IC50 under setting [2] was above 100 µM.
Consider `COc1ccc(NC(=O)c2ccco2)cc1NC(=O)c1ccc(C)cc1`, for which the IC50 is > 100 µM (inactive). Also, the IC50 under setting [2] is above 100 µM.
Taken in the same sequence, the figures for `Cc1nc(-c2cccc(S(=O)(=O)N3CC(C)CC(C)C3)c2)cs1` (configuration not stated) were > 100 µM (inactive) and above 100 µM.
Taken in the same sequence, the figures for `CN1CCc2nc(SCC(=O)Nc3ccc(Cl)cc3)c(C#N)cc2C1` were > 100 µM (inactive) and above 100 µM.
With `Oc1ccc2ccc3cccc[n+]3c2c1`, the IC50 was > 100 µM (inactive). Under setting [1], this molecule yielded an IC50 above 100 µM. The molecule further gave an IC50 under setting [2] above 100 µM.
Take `CCCOc1ccc(C(=O)N2CCCc3ccccc32)cc1`: the IC50 is > 100 µM (inactive). The molecule also gave an IC50 under setting [2] above 100 µM.
For the molecule `CC(C)NC(=O)CCNS(=O)(=O)c1ccc(Br)cc1`, the IC50 was > 100 µM (inactive). This molecule returned an IC50 under setting [1] above 100 µM. Under setting [2], this molecule had an IC50 of 24.2 µM.
For `COC(=O)C(NC(=O)c1ccco1)(Nc1nc(C)cs1)C(F)(F)F` (configuration not stated), the IC50 was > 100 µM (inactive). The molecule further returned an IC50 under setting [2] above 100 µM.
For `O=c1c2ccccc2nc(-c2ccco2)n1-c1nc2ccccc2s1`, in that order: > 100 µM (inactive) and above 100 µM.
Taken in the same sequence, the figures for `Fc1ccc(Nc2nc(Oc3ccc4c(c3)OCO4)nc(N3CCOCC3)n2)c(F)c1` were > 100 µM (inactive) and above 100 µM.
Taken in the same sequence, the figures for `Cc1cc(C)c(NC(=O)CSc2nnc(Cc3cccn3C)n2-c2ccc(F)cc2)c(C)c1` were > 100 µM (inactive) and above 100 µM.
For the molecule `CCC(C)(C)n1nnnc1CN(Cc1cccs1)Cc1cc2cc(OC)ccc2[nH]c1=O`, the IC50 is > 100 µM (inactive). Besides, the IC50 under setting [2] was above 100 µM.
For `COc1ccccc1CNC(=O)CN(c1ccc(C)cc1)S(=O)(=O)c1c(C)nn(C)c1C`, in that order: > 100 µM (inactive) and above 100 µM.
Regarding `Cc1ccc(S(=O)(=O)n2nc(OC(=O)c3ccco3)cc2N)cc1`, the IC50 is > 100 µM (inactive). Under setting [2], this molecule registered an IC50 above 100 µM.
For `CCOc1ccc2cc(/C=C/C(=O)c3ccco3)c(Cl)nc2c1`, in that order: > 100 µM (inactive) and above 100 µM.
For `COCC(=O)Nc1cc(OC)c(Cl)cc1OC`, in that order: > 100 µM (inactive) and above 100 µM.
